Experimental data: US20050100983A1, “Cell-free methods for identifying compounds that affect toll-like receptor 9 (TLR9) signaling” (Coley Pharmaceutical GmbH, priority 2003, published 2005)
Changes are numbered by the printed parent chain.

Tests used:
[1] = target: T1, mTLR9ect (extracellular domain of murine TLR9 fused to human IgG1-Fc) (Mus musculus, UniProt Q9EQU3); assay: SPR biosensor analysis of mTLR9ect binding to immobilized CpG-DNA; conditions: pH 7.4
T1 construct: mTLR9ect (aa 1-816); made in house
T1 sequence (Q9EQU3 26-816): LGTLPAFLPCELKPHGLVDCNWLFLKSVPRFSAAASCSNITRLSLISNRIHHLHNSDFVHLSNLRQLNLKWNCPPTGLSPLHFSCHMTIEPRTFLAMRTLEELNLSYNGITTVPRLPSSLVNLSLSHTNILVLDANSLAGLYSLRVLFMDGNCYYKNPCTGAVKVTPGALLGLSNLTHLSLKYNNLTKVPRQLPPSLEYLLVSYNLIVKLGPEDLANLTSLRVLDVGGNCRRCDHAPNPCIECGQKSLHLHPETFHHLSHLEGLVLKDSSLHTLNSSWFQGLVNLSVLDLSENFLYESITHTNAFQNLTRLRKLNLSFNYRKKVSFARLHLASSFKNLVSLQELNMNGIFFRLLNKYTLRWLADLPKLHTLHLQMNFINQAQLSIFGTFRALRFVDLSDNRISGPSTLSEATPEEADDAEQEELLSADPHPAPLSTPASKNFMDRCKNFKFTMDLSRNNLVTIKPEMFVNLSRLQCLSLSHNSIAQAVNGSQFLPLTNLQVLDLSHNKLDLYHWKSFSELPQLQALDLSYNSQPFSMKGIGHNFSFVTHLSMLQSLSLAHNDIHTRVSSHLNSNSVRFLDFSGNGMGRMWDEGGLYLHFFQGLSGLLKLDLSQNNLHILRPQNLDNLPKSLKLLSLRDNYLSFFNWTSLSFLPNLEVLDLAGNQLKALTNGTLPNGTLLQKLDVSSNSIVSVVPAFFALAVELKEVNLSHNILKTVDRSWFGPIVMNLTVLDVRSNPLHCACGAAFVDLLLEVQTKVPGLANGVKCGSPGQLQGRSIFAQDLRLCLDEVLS

[2] = target: T2, mTLR9ect-mut (D535→A and Y537→A) (Mus musculus, UniProt Q9EQU3, D535A/Y537A); assay: SPR biosensor analysis of double mutated mTLR9ect-mut on CpG-DNA; type: binding, murine; conditions: 200 nM protein, compared to wild-type mTLR9ect
T2 construct: mTLR9ect-mut (see below) (aa 1-816); made in house
T2 sequence (Q9EQU3 26-816 D535A/Y537A): T1 sequence (Q9EQU3 26-816) with D510A, Y512A
Procedure: FIG. 3B is a graph depicting SPR biosensor analysis of wild-type and double mutated mTLR9ect (mTLR9ect-mut, D535→A and Y537→A). Proteins were injected at 200 nM on sensor chips with immobilized CpG- and non-CpG-DNA and the sensorgrams recorded.
Mutation. For mutation of wild-type mTLR9 amino acids D535 and Y537 to two alanines, the primers 5′-[…]-3′ (SEQ ID NO:5) and 5′-[…]-3′ (SEQ ID NO:6) were used to generate mTLR9-mut. A site-specific-mutagenesis kit from Stratagene (Amsterdam, Netherlands) was applied according to the manufacturer's protocol. All PCR fragments were sequenced and found error-free.
SPR biosensor analysis. Real-time binding of TLR9 or TLR2 was measured by surface plasmon resonance biosensor technology using the BiaCore X system (Uppsala, Sweden). For analysis of TLR9 and TLR2 interaction, biotinylated CpG-DNA and non-CpG-DNA, or biotinylated Pam3CysK4 and PHCK4, respectively, were loaded in running buffer (50 mM MES, 150 mM NaCl, 1 mM MgCl2 at pH 6.5) on SA chips precoated with streptavidin (Biacore AB, Uppsala, Sweden). Non-CpG-DNA or PHCK4 (Wiesmuller K H et al. (1989) Vaccine 7:29-33) served as reference for CpG-DNA and Pam3CysK4 interaction (structure or sequence in Table 1). […] Binding was measured at 25° C. for 750 s (delay time 300 s). […] Sensorgrams were recorded and kinetic data were calculated by the BiaCore Evaluation program (Biacore, version 3.0.1). […]

## 5′-TCCATGACGTTCCTGATGCT-3′ (chemistry not given here) [CpG-DNA 1668, synthetic CpG oligodeoxynucleotide, TLR9 ligand]
[1]
  TLR9 binding to CpG-DNA: weak
  dissociation of TLR9 from CpG-DNA: fairly rapidly
[2]
  binding of mTLR9ect-mut to CpG-DNA: bound only weakly
